In the supplement of paper PMC10307832:

Legend:
Test in all cases: relative viability (nuclei count vs DMSO), 5 days (fraction); higher = more cells survive
AT-7519 + Lapatinib = compound: O=C(NC1CCNCC1)c1n[nH]cc1NC(=O)c1c(Cl)cccc1Cl [AT-7519] + CS(=O)(=O)CCNCc1ccc(-c2ccc3ncnc(Nc4ccc(OCc5cccc(F)c5)c(Cl)c4)c3c2)o1 [Lapatinib] (partner 2 µM)
Procedure, shortened: (§1)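 One day after seeding in 1536-well plates, lung cancer cell lines were dosed by pin tool. Dosing was either single-drug or a fixed anchor-drug dose plus five library-drug doses (not always all listed) in √10 steps. After 5 days, nuclei were stained in one fix-and-stain step and counted on 4× images, and relative viability is the nuclei count of treated wells over that of vehicle wells, given as the median of duplicate plates.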

AT-7519 + Olaparib = compound: O=C(NC1CCNCC1)c1n[nH]cc1NC(=O)c1c(Cl)cccc1Cl [AT-7519] + O=C(c1cc(Cc2n[nH]c(=O)c3ccccc23)ccc1F)N1CCN(C(=O)C2CC2)CC1 [Olaparib] (partner 8 µM)
Procedure, shortened: as §1

[1] = compound: C1=CC2=C(C=C(C(=C2N=C1)O)N=NC3=CC4=C(C=C3)C=C(C=C4)S(=O)(=O)O)S(=O)(=O)O + Cc1cc(Nc2cc(N3CCN(C)CC3)nc(Sc3ccc(NC(=O)C4CC4)cc3)n2)n[nH]1 [Tozasertib] (partner 0.1 µM)
Procedure, shortened: as §1

AT-7519 + Palbociclib = compound: O=C(NC1CCNCC1)c1n[nH]cc1NC(=O)c1c(Cl)cccc1Cl [AT-7519] + CC(=O)c1c(C)c2cnc(Nc3ccc(N4CCNCC4)cn3)nc2n(C2CCCC2)c1=O [Palbociclib] (partner 0.5 µM)
Procedure, shortened: as §1

Cell Line: UMC-11
- relative viability (AT-7519 + Lapatinib; first compound 0.01 µM): 1.18
- relative viability (AT-7519 + Lapatinib; first compound 0.03162 µM): 0.988
- relative viability (AT-7519 + Lapatinib; first compound 0.3162 µM): 0.519
- relative viability (AT-7519 + Lapatinib; first compound 1 µM): 0.252
- relative viability (AT-7519 + Olaparib; first compound 0.01 µM): 0.333
- relative viability (AT-7519 + Olaparib; first compound 0.03162 µM): 0.368
- relative viability (AT-7519 + Olaparib; first compound 0.3162 µM): 0.373
- relative viability (AT-7519 + Olaparib; first compound 1 µM): 0.229
- relative viability ([1]; first compound 0.08 µM): 0.187
- relative viability ([1]; first compound 0.253 µM): 0.193
- relative viability ([1]; first compound 0.8 µM): 0.212
- relative viability ([1]; first compound 2.53 µM): 0.205
- relative viability ([1]; first compound 8 µM): 0.179
- relative viability (AT-7519 + Palbociclib; first compound 0.01 µM): 0.319
- relative viability (AT-7519 + Palbociclib; first compound 0.03162 µM): 0.328
- relative viability (AT-7519 + Palbociclib; first compound 0.3162 µM): 0.283
- relative viability (AT-7519 + Palbociclib; first compound 1 µM): 0.25
